In brackets after ≈: the same amount, converted by molar mass. Activity calls are given as the source filed them. No cut-off for these calls is given here. Numbered stars: 1 amine (or outer) side, 2 acyl side, 3 side chain; on linkers, the order of the positions; unused ones are H or OH. Square brackets hold non-standard residues; d marks the D form. Peptide text beside a SMILES is read from it. * marks the point of attachment. X3 = CC(C)C[C@@H](CN(CC(N)=O)S(=O)(=O)c1ccc(C(F)(F)F)cc1)N*; X2 = CC(C)C[C@H](N)CN(CC(=O)[*:2])[*:1]; X1 = O=S(=O)(c1ccc(C(F)(F)F)cc1)*
Assays:
Pseudomonas aeruginosa [1] = assay: Antimicrobial activity against multidrug-resistant Pseudomonas aeruginosa 156 assessed as inhibition of visible bacterial growth incubated for 18 hrs by broth-dilution method; assay type: functional
Staphylococcus aureus [2] = assay: Antimicrobial activity against methicillin-resistant Staphylococcus aureus ATCC 33591 assessed as inhibition of visible bacterial growth incubated for 18 hrs by broth-dilution method; assay type: functional
[3] = Stability in human serum assessed as half life measured for 5 hrs by RP-HPLC analysis; assay type: ADME, cell-free
Pseudomonas aeruginosa [4] = assay: Bactericidal activity against Pseudomonas aeruginosa ATCC 27853 at 2 to 4 times MIC; assay type: functional, organism-based
Staphylococcus aureus [5] = assay: Antibiofilm activity against Staphylococcus aureus ATCC 25923 assessed as inhibition of biofilm formation at 4 to 8 microg/ml incubated for 24 hrs by crystal violet staining based analysis; assay type: functional; conditions: dose 4-8 µg/ml, at 4 to 8 µg/mL
Staphylococcus aureus [6] = assay: Antimicrobial activity against methicillin-resistant Staphylococcus aureus 3 assessed as inhibition of visible bacterial growth incubated for 18 hrs by broth-dilution method; assay type: functional
Staphylococcus aureus [7] = assay: Antibacterial activity against drug-susceptible Staphylococcus aureus ATCC 33591 assessed as reduction in microbial growth; assay type: functional
Pseudomonas aeruginosa [8] = assay: Antimicrobial activity against multidrug-resistant Pseudomonas aeruginosa 516 assessed as inhibition of visible bacterial growth incubated for 18 hrs by broth-dilution method; assay type: functional
Staphylococcus aureus [9] = assay: Antimicrobial activity against methicillin-resistant Staphylococcus aureus 6 assessed as inhibition of visible bacterial growth incubated for 18 hrs by broth-dilution method; assay type: functional
Staphylococcus aureus [10] = assay: Antimicrobial activity against methicillin-resistant Staphylococcus aureus 7 assessed as inhibition of visible bacterial growth incubated for 18 hrs by broth-dilution method; assay type: functional
Staphylococcus aureus [11] = assay: Antimicrobial activity against methicillin-resistant Staphylococcus aureus 1 assessed as inhibition of visible bacterial growth incubated for 18 hrs by broth-dilution method; assay type: functional
Staphylococcus aureus [12] = assay: Bactericidal activity against Staphylococcus aureus ATCC 33591 at 2 to 4 times MIC; assay type: functional, organism-based
Pseudomonas aeruginosa [13] = assay: Antimicrobial activity against Pseudomonas aeruginosa ATCC 27853 assessed as fold increase in MIC in presence of human serum; assay type: functional
Pseudomonas aeruginosa [14] = assay: Antibiofilm activity against Pseudomonas aeruginosa ATCC 27853 assessed as biofilm eradication at 4 times MIC incubated for 1 hr by crystal violet staining based assay; assay type: functional, organism-based
Pseudomonas aeruginosa [15] = assay: Bactericidal activity against Pseudomonas aeruginosa ATCC 27853 assessed as reduction in viable bacteria at 4 times MIC measured for 5 min by time-kill assay; assay type: functional, organism-based
Pseudomonas aeruginosa [16] = assay: Antimicrobial activity against multidrug-resistant Pseudomonas aeruginosa 050 assessed as inhibition of visible bacterial growth incubated for 18 hrs by broth-dilution method; assay type: functional
Staphylococcus aureus [17] = assay: Antimicrobial activity against methicillin-resistant Staphylococcus aureus 2 assessed as inhibition of visible bacterial growth incubated for 18 hrs by broth-dilution method; assay type: functional
Pseudomonas aeruginosa [18] = assay: Synergistic antibacterial activity against Pseudomonas […] assessed as fractional inhibitory concentration index in presence of polymyxin B by checkerboard assay; assay type: functional
Staphylococcus aureus [19] = assay: Antimicrobial activity against methicillin-resistant Staphylococcus aureus 5 assessed as inhibition of visible bacterial growth incubated for 18 hrs by broth-dilution method; assay type: functional
Staphylococcus aureus [20] = assay: Antimicrobial activity against Staphylococcus aureus ATCC 25923 assessed as fold change in MIC in presence of salt solution; assay type: functional
Pseudomonas aeruginosa [21] = assay: Antibiofilm activity against Pseudomonas aeruginosa ATCC 27853 assessed as biofilm thickness at 2 times MIC90 incubated for 24 hrs by confocal laser scanning microscopic analysis; assay type: functional
Pseudomonas aeruginosa [22] = assay: Antibiofilm activity against Pseudomonas aeruginosa ATCC 27853 assessed as biofilm thickness at 8 microg/ml incubated for 24 hrs by confocal laser scanning microscopic analysis; assay type: functional; conditions: dose 8 µg/ml
Cell membrane [23] = assay: Disruption of membrane integrity in Staphylococcus aureus ATCC 33591 incubated for 30 mins by PI staining based CLSM analysis; assay type: cell membranes
Pseudomonas aeruginosa [24] = assay: Antimicrobial activity against Pseudomonas aeruginosa ATCC 27853 at 1 times MIC incubated for 18 hrs in presence of LPS/LTA; assay type: functional, organism-based
Pseudomonas aeruginosa [25] = assay: Bactericidal activity against Pseudomonas aeruginosa ATCC 27853 at 1 to 4 times MIC by time-kill assay; assay type: functional, organism-based
Pseudomonas aeruginosa [26] = assay: Antimicrobial activity against multidrug-resistant Pseudomonas aeruginosa 085 assessed as inhibition of visible bacterial growth incubated for 18 hrs by broth-dilution method; assay type: functional
Salmonella typhimurium = assay: Antimicrobial activity against Salmonella typhimurium ATCC 14028 assessed as inhibition of visible bacterial growth incubated for 18 hrs by broth-dilution method; assay type: functional, Salmonella enterica subsp. enterica serovar Typhimurium; conditions: Salmonella enterica
Pseudomonas aeruginosa [27] = assay: Antimicrobial activity against multidrug-resistant Pseudomonas aeruginosa 073 assessed as inhibition of visible bacterial growth incubated for 18 hrs by broth-dilution method; assay type: functional
Pseudomonas aeruginosa [28] = assay: Antimicrobial activity against multidrug-resistant Pseudomonas aeruginosa 125 assessed as inhibition of visible bacterial growth incubated for 18 hrs by broth-dilution method; assay type: functional
Staphylococcus aureus [29] = assay: Antibiofilm activity against methicillin-resistant Staphylococcus aureus ATCC 33591 assessed as biofilm thickness at 2 times MIC90 incubated for 24 hrs by confocal laser scanning microscopic analysis; assay type: functional
Cell membrane [30] = assay: Induction of outer membrane permeabilization in Pseudomonas aeruginosa ATCC 27853 assessed as increase in NPN uptake measured upto 20 mins by NPN-dye based fluorescence analysis
Cell membrane [31] = assay: Disruption of membrane integrity in Pseudomonas aeruginosa ATCC 27853 incubated for 30 mins by PI staining based CLSM analysis
Staphylococcus aureus [32] = assay: Antibiofilm activity against methicillin-resistant Staphylococcus aureus ATCC 33591 assessed as biofilm eradication at 4 times MIC incubated for 2 hrs by crystal violet staining based assay; assay type: functional, organism-based
Staphylococcus aureus [33] = assay: Antimicrobial activity against methicillin-resistant Staphylococcus aureus 4 assessed as inhibition of visible bacterial growth incubated for 18 hrs by broth-dilution method; assay type: functional
Pseudomonas aeruginosa [34] = assay: Antimicrobial activity against Pseudomonas aeruginosa ATCC 27853 assessed as reduction in microbial growth in presence of human serum; assay type: functional
[35] = tested on: Staphylococcus epidermidis; assay: Antibiofilm activity against Staphylococcus epidermidis ATCC 12228 assessed as inhibition of biofilm formation at 4 to 8 microg/ml incubated for 24 hrs by crystal violet staining based analysis; assay type: functional; conditions: dose 4-8 µg/ml, at 4 to 8 µg/mL
Staphylococcus aureus [36] = assay: Antibiofilm activity against methicillin-resistant Staphylococcus aureus ATCC 33591 assessed as biofilm thickness at 8 microg/ml incubated for 24 hrs by confocal laser scanning microscopic analysis; assay type: functional; conditions: dose 8 µg/ml
Staphylococcus aureus [37] = assay: Additive antibacterial activity against methicillin-resistant Staphylococcus aureus S5 assessed as fractional inhibitory concentration index in presence of amoxicillin by checkerboard assay; assay type: functional
Staphylococcus aureus [38] = assay: Antimicrobial activity against methicillin-resistant Staphylococcus aureus ATCC 33591 assessed as reduction in bacterial growth in presence of human serum; assay type: functional
Pseudomonas aeruginosa [39] = assay: Antimicrobial activity against multidrug-resistant Pseudomonas aeruginosa 157 assessed as inhibition of visible bacterial growth incubated for 18 hrs by broth-dilution method; assay type: functional
Staphylococcus aureus [40] = assay: Antibiofilm activity against methicillin-resistant Staphylococcus aureus ATCC 33591 assessed as biofilm eradication at 4 times MIC incubated for 2 to 4 hrs by crystal violet staining based assay; assay type: functional, organism-based; conditions: time 2-4 hrs
Pseudomonas aeruginosa [41] = assay: Antibacterial activity against drug-susceptible Pseudomonas aeruginosa […] assessed as reduction in microbial growth; assay type: functional
Pseudomonas aeruginosa [42] = assay: Antibiofilm activity against Pseudomonas aeruginosa ATCC 27853 assessed as biofilm thickness at 1 times MIC90 incubated for 24 hrs by confocal laser scanning microscopic analysis; assay type: functional

CC(C)C[C@@H](CN(CC(N)=O)S(=O)(=O)c1ccc(C(F)(F)F)cc1)NC(=O)[C@H](CCCCN)NC(=O)[C@H](CCCCN)NC(=O)[C@H](CC(C)C)NC(=O)[C@H](CC(C)C)NC(=O)[C@H](CCCCN)NC(=O)[C@H](CC(C)C)NC(=O)[C@@H](N)Cc1ccccc1 (H-FLKLLKK-X3)
MIC (Pseudomonas aeruginosa [1]): 16 µg/mL (≈ 12.8 µM)
MIC (Staphylococcus aureus [2]): 4 µg/mL (≈ 3.19 µM)
half-life [3]: 2.96 h
Activity (Pseudomonas aeruginosa [4]): Active
inhibition (INH) (Staphylococcus aureus [5]): 50%
MIC (Staphylococcus aureus [6]): 4 µg/mL (≈ 3.19 µM)
MIC (Staphylococcus aureus [7]): 4 µg/mL
MIC (Pseudomonas aeruginosa [8]): 16 µg/mL (≈ 12.8 µM)
MIC (Staphylococcus aureus [9]): 4 µg/mL (≈ 3.19 µM)
MIC (Staphylococcus aureus [10]): 8 µg/mL (≈ 6.39 µM)
MIC (Staphylococcus aureus [11]): 8 µg/mL (≈ 6.39 µM)
Activity (Staphylococcus aureus [12]): Active
fold change (FC) (Pseudomonas aeruginosa [13]): 2
Activity (Pseudomonas aeruginosa [14]): Active
Activity (Pseudomonas aeruginosa [15]): Active
MIC (Pseudomonas aeruginosa [16]): 16 µg/mL (≈ 12.8 µM)
MIC (Staphylococcus aureus [17]): 4 µg/mL (≈ 3.19 µM)
fractional inhibitory concentration index (FICI) (Pseudomonas aeruginosa [18]): 0.75
MIC (Staphylococcus aureus [19]): 8 µg/mL (≈ 6.39 µM)
fold change (FC) (Staphylococcus aureus [20]): 0.25
Activity (Pseudomonas aeruginosa [21]): 20 um
Activity (Pseudomonas aeruginosa [22]): 20 um
Activity (Cell membrane [23]): Active
Activity (Pseudomonas aeruginosa [24]): inactive
Activity (Pseudomonas aeruginosa [25]): Active
MIC (Pseudomonas aeruginosa [26]): 16 µg/mL (≈ 12.8 µM)
MIC (Salmonella typhimurium): 16 µg/mL (≈ 12.8 µM)
MIC (Pseudomonas aeruginosa [27]): 16 µg/mL (≈ 12.8 µM)
MIC (Pseudomonas aeruginosa [28]): 16 µg/mL (≈ 12.8 µM)
Activity (Staphylococcus aureus [29]): 20 um
Activity (Cell membrane [30]): Dose-Dependent Effect
Activity (Cell membrane [31]): Active
Activity (Staphylococcus aureus [32]): Active
MIC (Staphylococcus aureus [33]): 8 µg/mL (≈ 6.39 µM)
MIC (Pseudomonas aeruginosa [34]): 8 µg/mL
inhibition (INH) [35]: 50%
Activity (Staphylococcus aureus [36]): 20 um
fractional inhibitory concentration index (FICI) (Staphylococcus aureus [37]): 0.5
MIC (Staphylococcus aureus [38]): 8 µg/mL
MIC (Pseudomonas aeruginosa [39]): 8 µg/mL (≈ 6.39 µM)
Activity (Staphylococcus aureus [40]): Active
MIC (Pseudomonas aeruginosa [41]): 4 µg/mL
Activity (Pseudomonas aeruginosa [42]): 40 um

CC(C)C[C@H](N)CN(CC(=O)N[C@@H](CCCCN)C(=O)N[C@@H](CC(C)C)C(=O)N[C@@H](CC(C)C)C(=O)N[C@@H](CCCCN)C(=O)N[C@@H](CCCCN)C(=O)N[C@@H](CC(C)C)C(=O)N[C@@H](CC(C)C)C(N)=O)S(=O)(=O)c1ccc(C(F)(F)F)cc1 (X1-[X2]KLLKKLL-NH2)
MIC (Pseudomonas aeruginosa [1]): 4 µg/mL (≈ 3.28 µM)
MIC (Staphylococcus aureus [2]): 4 µg/mL (≈ 3.28 µM)
half-life [3]: 9.22 h
Activity (Pseudomonas aeruginosa [4]): Active
inhibition (INH) (Staphylococcus aureus [5]): 50%
MIC (Staphylococcus aureus [6]): 4 µg/mL (≈ 3.28 µM)
MIC (Staphylococcus aureus [7]): 4 µg/mL
MIC (Pseudomonas aeruginosa [8]): 4 µg/mL (≈ 3.28 µM)
MIC (Staphylococcus aureus [9]): 4 µg/mL (≈ 3.28 µM)
MIC (Staphylococcus aureus [10]): 4 µg/mL (≈ 3.28 µM)
MIC (Staphylococcus aureus [11]): 4 µg/mL (≈ 3.28 µM)
Activity (Staphylococcus aureus [12]): Active
fold change (FC) (Pseudomonas aeruginosa [13]): 2
Activity (Pseudomonas aeruginosa [14]): Active
Activity (Pseudomonas aeruginosa [15]): Active
MIC (Pseudomonas aeruginosa [16]): 4 µg/mL (≈ 3.28 µM)
MIC (Staphylococcus aureus [17]): 4 µg/mL (≈ 3.28 µM)
fractional inhibitory concentration index (FICI) (Pseudomonas aeruginosa [18]): 0.5
MIC (Staphylococcus aureus [19]): 4 µg/mL (≈ 3.28 µM)
fold change (FC) (Staphylococcus aureus [20]): 0.25
Activity (Pseudomonas aeruginosa [21]): 20 um
Activity (Pseudomonas aeruginosa [22]): 20 um
Activity (Cell membrane [23]): Active
Activity (Pseudomonas aeruginosa [24]): inactive
Activity (Pseudomonas aeruginosa [25]): Active
MIC (Pseudomonas aeruginosa [26]): 8 µg/mL (≈ 6.56 µM)
MIC (Salmonella typhimurium): 8 µg/mL (≈ 6.56 µM)
MIC (Pseudomonas aeruginosa [27]): 8 µg/mL (≈ 6.56 µM)
MIC (Pseudomonas aeruginosa [28]): 8 µg/mL (≈ 6.56 µM)
Activity (Staphylococcus aureus [29]): 20 um
Activity (Cell membrane [30]): Dose-Dependent Effect
Activity (Cell membrane [31]): Active
Activity (Staphylococcus aureus [32]): Active
MIC (Staphylococcus aureus [33]): 4 µg/mL (≈ 3.28 µM)
MIC (Pseudomonas aeruginosa [34]): 8 µg/mL
inhibition (INH) [35]: 50%
Activity (Staphylococcus aureus [36]): 20 um
fractional inhibitory concentration index (FICI) (Staphylococcus aureus [37]): 1
MIC (Staphylococcus aureus [38]): 8 µg/mL
MIC (Pseudomonas aeruginosa [39]): 4 µg/mL (≈ 3.28 µM)
Activity (Staphylococcus aureus [40]): Active
MIC (Pseudomonas aeruginosa [41]): 4 µg/mL
Activity (Pseudomonas aeruginosa [42]): 40 um

Reference: ChEMBL document CHEMBL5537135, “Novel antimicrobial peptides modified with fluorinated sulfono-γ-AA having high stability and targeting multidrug-resistant bacteria infections” (Eur J Med Chem, 2024)
